Assay [1] has as its target T1, Son of sevenless homolog 1 (Homo sapiens) (UniProt Q07889).
T1 sequence (whole entry): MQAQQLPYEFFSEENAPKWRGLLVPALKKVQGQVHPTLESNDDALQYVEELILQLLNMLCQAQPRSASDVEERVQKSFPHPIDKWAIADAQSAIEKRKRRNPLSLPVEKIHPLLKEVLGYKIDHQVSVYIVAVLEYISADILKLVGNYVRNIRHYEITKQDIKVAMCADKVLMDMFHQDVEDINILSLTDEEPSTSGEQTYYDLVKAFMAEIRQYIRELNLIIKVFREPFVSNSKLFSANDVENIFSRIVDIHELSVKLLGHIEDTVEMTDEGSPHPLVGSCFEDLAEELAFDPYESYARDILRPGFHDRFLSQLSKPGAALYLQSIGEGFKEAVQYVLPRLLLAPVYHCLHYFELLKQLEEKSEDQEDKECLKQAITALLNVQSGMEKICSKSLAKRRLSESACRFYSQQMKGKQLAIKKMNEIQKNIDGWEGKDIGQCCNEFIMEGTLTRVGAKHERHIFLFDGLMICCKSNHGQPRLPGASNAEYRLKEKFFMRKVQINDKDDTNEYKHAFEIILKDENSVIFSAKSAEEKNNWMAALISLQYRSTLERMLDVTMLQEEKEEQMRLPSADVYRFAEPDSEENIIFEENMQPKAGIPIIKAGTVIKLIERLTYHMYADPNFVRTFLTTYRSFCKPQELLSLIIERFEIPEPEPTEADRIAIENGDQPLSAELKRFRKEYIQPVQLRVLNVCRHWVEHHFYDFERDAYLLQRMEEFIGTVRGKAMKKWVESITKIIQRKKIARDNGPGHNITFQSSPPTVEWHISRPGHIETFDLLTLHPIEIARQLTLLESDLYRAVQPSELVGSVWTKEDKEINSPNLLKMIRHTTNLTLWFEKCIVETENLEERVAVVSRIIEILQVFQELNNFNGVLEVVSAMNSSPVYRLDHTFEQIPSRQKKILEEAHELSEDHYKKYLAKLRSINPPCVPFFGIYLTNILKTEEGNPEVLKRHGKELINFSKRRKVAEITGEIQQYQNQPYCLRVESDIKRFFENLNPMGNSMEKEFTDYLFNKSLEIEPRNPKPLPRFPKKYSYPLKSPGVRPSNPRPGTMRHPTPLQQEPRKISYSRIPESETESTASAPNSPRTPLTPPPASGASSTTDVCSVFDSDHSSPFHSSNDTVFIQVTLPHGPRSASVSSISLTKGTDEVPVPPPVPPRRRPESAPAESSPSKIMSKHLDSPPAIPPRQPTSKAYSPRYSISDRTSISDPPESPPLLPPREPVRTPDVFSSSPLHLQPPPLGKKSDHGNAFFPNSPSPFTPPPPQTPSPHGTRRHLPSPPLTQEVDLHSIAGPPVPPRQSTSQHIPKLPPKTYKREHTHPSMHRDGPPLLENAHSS
The assay can be described thus: Co-operativity factor, ratio of Kd for binding affinity to GST-tagged human SOS1 (564 to 1049 reisudes) expressed in Escherichia coli BL21 (DE3) cells assessed as binary complex formation to Kd for binding affinity to GST-tagged human SOS1 (564 to 1049 residues) expressed in Escherichia coli BL21 (DE3) cells assessed as ternary complex formation in the presence of 6His tagged human VCB.

Assay [2] has as its target von Hippel-Lindau disease tumor suppressor/Son of sevenless homolog 1/Elongin-B/Elongin-C (Homo sapiens) (UniProt Q07889+P40337+Q15370+Q15369). Put plainly: Binding affinity to GST tagged human SOS1(564 to 1049 residues)-6his tagged human VHL (54 to 213 residues)-human ElonginC (17 to 112 residues)-human ElonginB (1 to 104 residues) expressed in Escherichia coli BL21 (DE3) cells assessed as ternary complex formation by measuring maximal HTRF signals incubated for 15 mins by HTRF analysis.

In assay [3] the target is T2, von Hippel-Lindau disease tumor suppressor/Son of sevenless homolog 1 (Homo sapiens) (UniProt Q07889+P40337). Put plainly: PROTAC activity at VHL/SOS1 in human NCI-H358 cells assessed as induction of SOS1 protein degradation at 1.0 uM incubated for 24 hrs by Immunoblot analysis relative to control. It is filed as cell-based.
Assay [4] concerns the target T3, Son of sevenless homolog 1 (Homo sapiens, UniProt Q07889).
T3 sequence (Q07889 whole entry): T1 sequence (whole entry)
Put plainly: Binding affinity to GST-tagged human SOS1 (564 to 1049 residues) expressed in Escherichia coli BL21 (DE3) cells assessed as ternary complex formation by measuring dissociation constant incubated for 15 mins in the presence of 6His tagged human VCB by fluorescence polarization-based displacement assay.

Assay [5] deals with T3, Son of sevenless homolog 1. The assay can be described thus: Binding affinity to GST-tagged human SOS1 (564 to 1049 residues) expressed in Escherichia coli BL21 (DE3) cells assessed as binary complex formation by measuring dissociation constant incubated for 15 mins by fluorescence polarization-based displacement assay. In general terms: Fluorescence polarisation rises when a labelled molecule tumbles more slowly, as on binding a larger partner.

Assay [6] concerns the target T2, von Hippel-Lindau disease tumor suppressor/Son of sevenless homolog 1 (Homo sapiens). The assay can be described thus: PROTAC activity at VHL/SOS1 in human NCI-H358 cells assessed as induction of SOS1 protein degradation at 0.1 uM incubated for 24 hrs by Immunoblot analysis relative to control. It is filed as cell-based. (A western blot detects proteins with antibodies after separation by electrophoresis.)

Assay [7] has the same target. The assay can be described thus: PROTAC activity at VHL/SOS1 in human NCI-H358 cells assessed as induction of SOS1 protein degradation by measuring maximal efficacy at 2 to 2000 nM incubated for 24 hrs by Immunoblot analysis relative to control. The format is cell-based. As to conditions: dose 2-2000 nM.
Assay [8] deals with von Hippel-Lindau disease tumor suppressor/Son of sevenless homolog 1 (Homo sapiens, UniProt P40337+Q07889). Put plainly: PROTAC activity at VHL/SOS1 in human NCI-H358 cells assessed as induction of SOS1 protein degradation incubated for 24 hrs by Immunoblot analysis. The format is cell-based.

Active and inactive are the calls of the source. The rule behind the calls is not given here.

In the case of `COc1cc2nc(C)nc(N[C@H](C)c3cc(N)cc(C(F)(F)F)c3)c2cc1C1CCN(C(=O)CCOCCC(=O)N[C@H](C(=O)N2C[C@H](O)C[C@H]2C(=O)N[C@@H](C)c2ccc(-c3scnc3C)cc2)C(C)(C)C)CC1`, the Ratio in assay [1] was determined as 2.8. In addition, the outcome in assay [2] was inactive. Also, the Activity was determined as 22.9% in assay [3] and 0% in assay [6]. The Kd (usually the constant that tells how readily two partners part at equilibrium) in assay [4] turned out to be 33.6 nM; in assay [5], 95.4 nM. Also, in assay [7], the maximum response (Emax) (as a rule, the greatest response seen or fitted, relative to the assay's reference) was determined as 37.6%.
For `COc1cc2nc(C)nc(N[C@H](C)c3cc(N)cc(C(F)(F)F)c3)c2cc1C1CCN(C(=O)COCCCC(=O)N[C@H](C(=O)N2C[C@H](O)C[C@H]2C(=O)N[C@@H](C)c2ccc(-c3scnc3C)cc2)C(C)(C)C)CC1`, the Ratio in assay [1] was determined as 8.9. The 50% effective concentration (EC50) (as a rule, the concentration needed to bring the measured effect to its halfway point) in assay [8] is 49.3 nM. The Activity in assay [3] was 90.2%; in assay [6], 54.6%. Moreover, the Kd in assay [4] amounted to 17.4 nM; in assay [5] it was 155 nM. Also, the Emax in assay [7] amounted to 97.9%.
With `COc1cc2nc(C)nc(N[C@H](C)c3cc(N)cc(C(F)(F)F)c3)c2cc1C1CCN(C(=O)CCCCCCCCC(=O)N[C@H](C(=O)N2C[C@H](O)C[C@H]2C(=O)N[C@@H](C)c2ccc(-c3scnc3C)cc2)C(C)(C)C)CC1`, the Activity in assay [3] and in assay [6] was 0% in each case.
`COc1cc2nc(C)nc(N[C@H](C)c3cc(N)cc(C(F)(F)F)c3)c2cc1C1CCN(C(=O)[C@H]2CC[C@H](C(=O)N[C@H](C(=O)N3C[C@H](O)C[C@H]3C(=O)N[C@@H](C)c3ccc(-c4scnc4C)cc3)C(C)(C)C)CC2)CC1`: the Activity in assay [3] came out at 8.52%; in assay [6] it was 3.24%.
As for `COc1cc2nc(C)nc(N[C@H](C)c3cc(N)cc(C(F)(F)F)c3)c2cc1C1CCN(C(=O)CCCCCCC(=O)N[C@H](C(=O)N2C[C@H](O)C[C@H]2C(=O)N[C@@H](C)c2ccc(-c3scnc3C)cc2)C(C)(C)C)CC1`, the Ratio in assay [1] was 2.9. In addition, the outcome in assay [2] was inactive. In addition, the Activity was 47.3% in assay [3] and 25.2% in assay [6]. Moreover, the dissociation constant (Kd) in assay [4] was 27.1 nM; in assay [5], 78.6 nM. Besides, the maximal response (Emax) in assay [7] came out at 39.7%.
As for `COc1cc2nc(C)nc(N[C@H](C)c3cc(N)cc(C(F)(F)F)c3)c2cc1C1CCN(C(=O)COCCOCC(=O)N[C@H](C(=O)N2C[C@H](O)C[C@H]2C(=O)N[C@@H](C)c2ccc(-c3scnc3C)cc2)C(C)(C)C)CC1`, the values for the Activity in assay [3] and in assay [6] were 62.5% and 19.6%, respectively.
As to `COc1cc2nc(C)nc(N[C@H](C)c3cc(N)cc(C(F)(F)F)c3)c2cc1C1CCN(C(=O)C2CCN(CCC(=O)N[C@H](C(=O)N3C[C@H](O)C[C@H]3C(=O)N[C@@H](C)c3ccc(-c4scnc4C)cc3)C(C)(C)C)CC2)CC1`, the Activity was 22.6% in assay [3] and 21.7% in assay [6].
In the same order, the values of `COc1cc2nc(C)nc(N[C@H](C)c3cc(N)cc(C(F)(F)F)c3)c2cc1C1CCN(C(=O)C2CN(CCC(=O)N[C@H](C(=O)N3C[C@H](O)C[C@H]3C(=O)N[C@@H](C)c3ccc(-c4scnc4C)cc3)C(C)(C)C)C2)CC1` are 11.2% and 9.8%.
In the same order, the values of `COc1cc2nc(C)nc(N[C@H](C)c3cc(N)cc(C(F)(F)F)c3)c2cc1C1CCN(C(=O)CCCC(=O)N[C@H](C(=O)N2C[C@H](O)C[C@H]2C(=O)N[C@@H](C)c2ccc(-c3scnc3C)cc2)C(C)(C)C)CC1` are 11.7% and 9.28%.
Regarding `COc1cc2nc(C)nc(N[C@H](C)c3cc(N)cc(C(F)(F)F)c3)c2cc1C1CCN(CCCCCCC(=O)N[C@H](C(=O)N2C[C@H](O)C[C@H]2C(=O)N[C@@H](C)c2ccc(-c3scnc3C)cc2)C(C)(C)C)CC1`, the Ratio in assay [1] is 2.7. In assay [2], the outcome was inactive. The results for the Activity in assay [3] and in assay [6] were 10.7% and 9.77%, respectively. Besides, the equilibrium dissociation constant (Kd) in assay [4] stood at 16.3 nM; in assay [5] it was 44.2 nM. The maximum response (Emax) in assay [7] is 9.1%.
As for `COc1cc2nc(C)nc(N[C@H](C)c3cc(N)cc(C(F)(F)F)c3)c2cc1C1CCN(C(=O)CCCOCC(=O)N[C@H](C(=O)N2C[C@H](O)C[C@H]2C(=O)N[C@@H](C)c2ccc(-c3scnc3C)cc2)C(C)(C)C)CC1`, in assay [1], the Ratio worked out at 2.3. Also, the result in assay [2] was inactive. The Activity worked out at 6.52% in assay [3] and 1.36% in assay [6]. The equilibrium dissociation constant (Kd) in assay [4] came to 27.8 nM; in assay [5] it was 63.5 nM. The maximum response (Emax) in assay [7] was determined as 20.9%.
Consider `COc1cc2nc(C)nc(N[C@H](C)c3cc(N)cc(C(F)(F)F)c3)c2cc1C1CCN(C(=O)CCCCCCCC(=O)N[C@H](C(=O)N2C[C@H](O)C[C@H]2C(=O)N[C@@H](C)c2ccc(-c3scnc3C)cc2)C(C)(C)C)CC1`, for which the Activity in assay [3] came to 80.2%; in assay [6], 31.4%.
In the same order, the values of `COc1cc2nc(C)nc(N[C@H](C)c3cc(N)cc(C(F)(F)F)c3)c2cc1C1CCN(CCCCCCCC(=O)N[C@H](C(=O)N2C[C@H](O)C[C@H]2C(=O)N[C@@H](C)c2ccc(-c3scnc3C)cc2)C(C)(C)C)CC1` are 7.32% and 9.25%.
Turning to `COc1cc2nc(C)nc(N[C@H](C)c3cc(N)cc(C(F)(F)F)c3)c2cc1C1CCN(C(=O)CCCCC(=O)N[C@H](C(=O)N2C[C@H](O)C[C@H]2C(=O)N[C@@H](C)c2ccc(-c3scnc3C)cc2)C(C)(C)C)CC1`, the Ratio in assay [1] was determined as 2.8. For the same compound, the outcome in assay [2] was inactive. Besides, the Activity was 37% in assay [3] and 16.4% in assay [6]. In addition, the figures for the equilibrium dissociation constant (Kd) in assay [4] and in assay [5] were 26.7 nM and 75.7 nM, respectively. Moreover, in assay [7], the maximal response (Emax) came out at 42.9%.
`COc1cc2nc(C)nc(N[C@H](C)c3cc(N)cc(C(F)(F)F)c3)c2cc1C1CCN(C(=O)CCCCCCCCCC(=O)N[C@H](C(=O)N2C[C@H](O)C[C@H]2C(=O)N[C@@H](C)c2ccc(-c3scnc3C)cc2)C(C)(C)C)CC1`: the Activity in assay [3] is 37.9%; in assay [6], 9.65%.
The like results for `COc1cc2nc(C)nc(N[C@H](C)c3cc(N)cc(C(F)(F)F)c3)c2cc1C1CCN(CCCCCC(=O)N[C@H](C(=O)N2C[C@H](O)C[C@H]2C(=O)N[C@@H](C)c2ccc(-c3scnc3C)cc2)C(C)(C)C)CC1` were, in that order, 2.02% and 3.04%.

These data come from ChEMBL document CHEMBL5247656, “Discovery of a Potent, Cooperative, and Selective SOS1 PROTAC ZZ151 with In Vivo Antitumor Efficacy in KRAS-Mutant Cancers” (J Med Chem, 2023).
